Here are results for 13 compounds from patent US20240124456A1, “AZA-ERGOLINE DERIVATIVE AND PREPARATION METHOD THEREFOR AND APPLICATION THEREOF” (SHANGHAITECH UNIVERSITY, priority 2021, published 2024).

SMILES strings stand for the structures.

Test [1] addresses T1, dopamine D2 receptors (Homo sapiens (Human), UniProt P14416). In words: Radioligand competition binding, affinity for dopamine D2 receptors ([3H]-Methylspiperone). Conditions: [3H]-Methylspiperone (0.3-0.5 nM), HEK-293T membranes; for Ki: I-1 to 19 n=3, I-20 to 27 single determination. How it is done: A 10 cm diameter dish was used for transfection with 10 ng of the dopamine D2 receptors and 40 μL of PEI. After 48 hours, the 10 cm dish was taken out from the cell culture room and the cultured cells had expressed the dopamine D2 receptors. A vacuum pump was used to suck off the culture medium, 3 mL of lysis buffer (50 mM Tris hydrochloric acid buffer, pH 7.4) was added to each well, and the cells were placed in a 4° C. freezer for 10 minutes. After the cells were detached, the cells were transferred to a 15 mL centrifuge tube and centrifuged at 1500 rpm for 5 minutes at 4° C., and the supernatant was discarded. The cell pellet was transferred to a tissue homogenizer, and 3 mL of lysis buffer was added and fully ground until the cells were broken. Then, cell suspension was equally divided into several EP tubes, centrifuged at 4° C. and 12000 rpm for 5 min, and the supernatant was discarded. The precipitate was the cell membrane component containing the dopamine D2 receptors and stored at −80° C.
First, a standard binding buffer (50 mM HEPES, 50 mM NaCl, 5 mM MgCl2, 0.5 mM EDTA, pH 7.4) was added to the cell membrane component containing the dopamine D2 receptors, and the cell membrane was disrupted and resuspended with an electric tissue homogenizer. 30 μL of membrane protein suspension was added to each well of a 96-well plate. Then, 30 μL of different drugs were added to the 96-well plate from left to right to ensure that the final drug concentrations were 10^−5 M, 10^−6 M, 10^−7 M, 10^−8 M, 10^−9 M and 0 M, with two replicates per treatment. Next, 30 μL [^3H]-N-Methylspiperone was added to each well of the 96-well plate, and the plate was incubated for 2 hours at room temperature in the dark. The unbound isotopes were removed by Whatman GF/C filter membrane and vacuum pump, and the isotopes bound to the receptors were detected by MicroBeta isotope liquid scintillation counter.
The affinity of the compounds of the present invention for the dopamine D2 receptors was determined by the method of radioligand competition experiment. In the first step, a cell membrane component containing specific dopamine D2 receptors was prepared. A10 cm dish was used for transfection with 10 ng of the dopamine D2 receptors and 40 μL of PEI. After 48 hours, the 10 cm dish was taken out from the cell culture room and the cultured cells had expressed the dopamine D2 receptors. A vacuum pump was used to suck off the culture medium, 3 mL of lysis buffer was added to each well, and the cells were placed in a 4° C. freezer for 10 minutes. After the cells were detached, the cells were transferred to a 15 mL centrifuge tube and centrifuged at 1500 rpm for 5 minutes at 4° C., and the supernatant was discarded. The cell pellet was transferred to a tissue homogenizer, and 3 mL of lysis buffer was added and fully ground until the cells were broken. Then, cell suspension was equally divided into several EP tubes, centrifuged at 4° C. and 12000 rpm for 5 min, and the supernatant was discarded. The precipitate was the cell membrane component containing the dopamine D2 receptors. […] First, a standard binding buffer was added to the cell membrane component containing the dopamine D2 receptors, and the cell membrane was disrupted and resuspended with an electric tissue homogenizer. 30 μL of membrane protein suspension was added to each well of a 96-well plate. Then, 30 μL of different drugs were added to the 96-well plate from left to right to ensure that the final drug concentrations were 10^−5 M, 10^−6 M, 10^−7 M, 10^−8 M, 10^−9 M and 0 M, with two replicates per treatment. Next, 30 μL [^3H]-Methylspiperone was added to each well of the 96-well plate. The plate was incubated for 2 hours at room temperature in the dark. Detection. The machine reading value reflected the amount of [^3H]-Methylspiperone bound on the membrane, and after further data processing, the affinity Ki value of different compounds for dopamine D2 receptors was obtained.

The target of test [2] is T1, dopamine D2 receptors. In words: G protein Gαi1-γ9 dissociation BRET, dopamine D2 receptor functional activity. The format is cell-based. Conditions: for Emax: read-out: Gai1 BRET Emax % ± SEM. On the procedure:
To examine downstream G protein signaling mediated by dopamine D2 receptors, 6 cm dish was used for transfection with 1μg of dopamine D2 receptors, 1μg of Gαi1 fused to seaweed luciferase (Gαi1-Rluc), 1 μg of Gβ3, 1 μg of Gγ9 fused to green fluorescent protein (Gγ9-GFP) and 16 μL of transfection reagent PEI. […] On the third day, the drugs were added for test.
(§1) To examine downstream G-protein signaling pathway mediated by dopamine D2 receptors, on the first day, 6 cm dish was used for transfection with 1μg of dopamine D2 receptors, 1μg of Gαi1 containing C-terminal seaweed luciferase (GGαi1-Rluc), 1 μg of […], 1 μg of Gγ9 containing C-terminal green fluorescent protein (Gγ9-GFP) and 16 μL of PEI. At the same time, in order to examine the downstream f3-arrestin2 signaling pathway mediated by dopamine D2 receptors, on the first day, 6 cm dish was used for transfection with 500 μg of dopamine D2 receptors containing C-terminal seaweed luciferase (D2-Rluc), 500 μg of G protein-coupled receptor kinase 2 (GRK2), 2500 μg of […] containing N-terminal green fluorescent protein (GFP2-ARRB2) and 14 μL of PEI. The next day, the overgrown cells were digested and plated a 96-well plate at the amount of cells contained in a 6 cm culture dish with overgrown cells, and 100 μL of culture medium was added to each well. On the third day, the drugs were added for test. The 96-well plate was taken out from the cell culture room to remove the culture medium, 40 μL of the substrate coelenterazine 400a (final concentration of 5 μM) was added to each well, and then 20 μL of different drugs were added in turn from left to right to ensure that the final concentration of the drugs decreased gradually from bottom to top, and each treatment was repeated twice. Finally, the prepared samples were loaded on machine for test. The machine reading value reflected the intracellular β-arrestin2 on the membrane and the dissociation of G protein trimer. The former indicated the degree of activation of the β-arrestin2 signaling pathway downstream of the dopamine D2 receptors, and the latter indicated the degree of activation of the G protein signaling pathway downstream of the dopamine D2 receptors.
(In general: BRET reads energy transfer from a luciferase to a nearby fluorophore.)

The target in test [3] is T1, dopamine D2 receptors. As to the kind of experiment: β-arrestin2 recruitment BRET, dopamine D2 receptor functional activity. Format: cell-based. As to conditions: for Emax: read-out: β-arrestin2 BRET Emax % ± SEM. On the procedure: To examine the downstream f3-arrestin2 signaling pathway mediated by dopamine D2 receptors, 6 cm dish was used for transfection with 500 […] of dopamine D2 receptors fused to seaweed luciferase (D2-Rluc), 500 μg of G protein-coupled receptor kinase 2 (GRK2), 2500 μg of β-arrestin2 fused to green fluorescent protein (GFP2-ARRB2) and 14 μL of transfection reagent PEI. The next day, the overgrown cells were digested and plated a 96-well plate at the amount of cells contained in a 6 cm culture dish with overgrown cells, and 100 μL of culture medium was added to each well. On the third day, the drugs were added for test.
as §1
In general terms: Recruitment of arrestin is a read-out of receptor activation apart from second messengers.

Where [4] appears, read: HEK-293T, I-1 to 19 n=3, I-20 to 27 single determination, read-out: Gai1 BRET EC50.
Where [5] appears, read: n=3, read-out: Gai1 BRET pEC50 ± SEM (converted).
Where [6] appears, read: relative to the endogenous ligand dopamine.
Setting [7] is: n=3, read-out: β-arrestin2 BRET pEC50 ± SEM (converted).
Where [8] appears, read: HEK-293T, I-1 to 19 n=3, I-20 to 27 single determination, read-out: β-arrestin2 BRET EC50.
Where [9] appears, read: antagonistic activity, single determination, read-out: Gai1 BRET EC50 (antagonistic activity).

T1 sequence (P14416 whole entry): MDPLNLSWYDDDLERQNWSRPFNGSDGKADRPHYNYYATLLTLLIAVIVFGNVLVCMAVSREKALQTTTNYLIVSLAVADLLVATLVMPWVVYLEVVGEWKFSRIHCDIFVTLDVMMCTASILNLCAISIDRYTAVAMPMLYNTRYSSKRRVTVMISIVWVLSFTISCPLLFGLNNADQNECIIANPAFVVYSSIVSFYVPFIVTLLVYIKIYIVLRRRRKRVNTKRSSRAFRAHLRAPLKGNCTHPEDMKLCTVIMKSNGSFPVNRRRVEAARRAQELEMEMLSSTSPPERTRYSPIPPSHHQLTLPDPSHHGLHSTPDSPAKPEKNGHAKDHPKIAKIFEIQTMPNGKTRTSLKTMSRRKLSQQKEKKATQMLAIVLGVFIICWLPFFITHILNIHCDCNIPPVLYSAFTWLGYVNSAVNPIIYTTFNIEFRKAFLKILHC

As to `O=c1ccc2ccc(OCCCCN3CCN4c5cccc6[nH]cc(c56)CC4C3)cc2[nH]1` (single isomer, unassigned; (+)) [(+)-I-2], the inhibition constant (Ki) (in general, the equilibrium dissociation constant of an inhibitor or competing ligand from its target) in test [1] was 0.00887 µM. The results for the EC50 in test [2] (setting [4]), in test [2] (setting [5]) and in test [3] (setting [7]) were 0.001 µM, 0.000851 µM and 0.0158 µM, respectively. Moreover, the values for the Emax in test [2] (setting [6]) and in test [3] (setting [6]) were 95% and 89%, respectively.
For `O=c1ccc2ccc(OCCCCN3CCN4c5cccc6[nH]cc(c56)CC4C3)cc2[nH]1` (single isomer, unassigned; (-)) [(−)-I-2], the Ki in test [1] came out at 0.00175 µM. Moreover, the EC50 in test [2] (setting [4]) is 0.003 µM; in test [2] (setting [5]), 0.00275 µM; in test [3] (setting [7]), 0.0182 µM. Besides, the “Gai1 BRET Emax % ± SEM” value in test [2] (setting [6]) is 91 ± 3%. For the same compound, in test [3] (setting [6]), the “β-arrestin2 BRET Emax % ± SEM” value turned out to be 76 ± 2%.
`c1cc2c3c(c[nH]c3c1)CC1CN(CCCCOc3ccc4scnc4c3)CCN21` (stereo not drawn) [Compound I-3]: the EC50 in test [2] (setting [4]) turned out to be 0.0437 µM; in test [3] (setting [8]) it was 0.0646 µM. Moreover, the figures for the Emax in test [2] (setting [6]) and in test [3] (setting [6]) were 92% and 93%, respectively.
With `Cc1nc2cc(OCCCCN3CCN4c5cccc6[nH]cc(c56)CC4C3)ccc2o1` (stereo not drawn) [Compound I-4, 5-(4-(4,6,6a,7,9,10-hexahydro-8H-pyrazino[1,2-a]pyrrolo[4,3,2-de]quinolin-8-yl)butoxy)-2-methylbenzo[d]oxazole], the affinity in test [1] corresponds to a Ki of 0.0303 µM. Also, the “Affinity pKi ± SEM” value in test [1] (n=3) is on record as “(7.52 ± 0.08)”. Further, the results for the EC50 in test [2] (setting [4]) and in test [3] (setting [8]) were 0.00668 µM and 0.071 µM, respectively. Moreover, the results for the Emax in test [2] (setting [6]) and in test [3] (setting [6]) were 80% and 66%, respectively.
Turning to `c1cc2c3c(c[nH]c3c1)CC1CN(CCCOc3ccc4c(c3)OCO4)CCN21` (stereo not drawn) [Compound I-9, 8-(3-(benzo[d][1,3]dioxo1-5-yloxy)propyl)-6,6a,7,8,9,10-hexahydro-4H-pyrazino[1,2-a]pyrrolo[4,3,2-de]quinoline], the values for the EC50 in test [2] (setting [4]) and in test [3] (setting [8]) were 0.166 µM and 0.148 µM, respectively. In addition, the Emax (usually the maximal effect, on the per cent scale that the assay sets) is 92% in test [2] (setting [6]) and 96% in test [3] (setting [6]).
On to `O=C(N[C@H]1CC[C@H](CCN2CCN3c4cccc5[nH]cc(c45)CC3C2)CC1)N1CCCC1` (stereo partly drawn) [Compound I-11, N-(4-(2-(4,6,6a,7,9,10-hexahydro-8H-pyrazino[1,2-a]pyrrolo[4,3,2-de]quinolin-8-yl)ethyl)trans-cyclohexyl)tetrahydropyrrole-l-carboxamide], for which the EC50 in test [2] (setting [4]) is 0.00933 µM; in test [3] (setting [8]), 0.0112 µM. Moreover, the Emax in test [2] (setting [6]) worked out at 91%; in test [3] (setting [6]), 87%.
As to `CN(C)C(=O)N[C@H]1CC[C@H](CN2CCN3c4cccc5[nH]cc(c45)CC3C2)CC1` (stereo partly drawn) [Compound I-16], the EC50 in test [2] (setting [4]) stood at 0.0589 µM; in test [3] (setting [8]), 0.0407 µM. Besides, the values for the Emax in test [2] (setting [6]) and in test [3] (setting [6]) were 84% and 90%, respectively.
Consider `O=C1CCc2ccc(OC/C=C/CN3CCN4c5cccc6[nH]cc(c56)CC4C3)cc2N1` (stereo not drawn) [Compound I-20], for which the EC50 in test [2] (setting [4]) turned out to be 0.0102 µM; in test [3] (setting [8]), 0.0982 µM. Also, the Emax in test [2] (setting [6]) stood at 74%; in test [3] (setting [6]), 88%.
For the compound `O=c1ccc2ccc(OC/C=C/CN3CCN4c5cccc6[nH]cc(c56)CC4C3)cc2[nH]1` (stereo not drawn) [Compound I-21], the figures for the EC50 in test [2] (setting [4]) and in test [3] (setting [8]) were 0.00771 µM and 0.0619 µM, respectively. For the same compound, the values for the Emax in test [2] (setting [6]) and in test [3] (setting [6]) were 77% and 90%, respectively.
In the case of `O=C(CCCN1CCN2c3cccc4[nH]cc(c34)CC2C1)c1ccc(F)cc1` (stereo not drawn) [Compound I-24, 1-(4-fluorobenzene)-4-(4,6,6a,7,9,10-hexahydro-8H-pyrazino[1,2-a]pyrrolo[4,3,2-de]quinolin-8-yl)-1-butanone], the EC50 in test [2] (setting [4]) is 0.0114 µM; in test [3] (setting [8]), 0.0104 µM. Besides, the figures for the Emax in test [2] (setting [6]) and in test [3] (setting [6]) were 38% and 26%, respectively.
As for `OC(CCCN1CCN2c3cccc4[nH]cc(c34)CC2C1)c1ccc(F)cc1` (stereo not drawn) [Compound I-25, 1-(4-fluorobenzene)-4-(4,6,6a,7,9,10-hexahydro-8H-pyrazino[1,2-a]pyrrolo[4,3,2-de]quinolin-8-yl)-1-butanol], the EC50 in test [2] (setting [4]) stood at 0.00748 µM; in test [3] (setting [8]), 0.0096 µM. The Emax in test [2] (setting [6]) was 29%; in test [3] (setting [6]), 30%.
Regarding `Cn1cc2c3c(cccc31)N1CCN(CCCC(=O)c3ccc(F)cc3)CC1C2` (stereo not drawn) [Compound I-26, 1-(4-fluorobenzene)-4-(4-methyl-4,6,6a,7,9,10-hexahydro-8H-pyrazino[1,2-a]pyrrolo[4,3,2-de]quinolin-8-yl)-1-butanone], the EC50 in test [2] (setting [9]) is 7.62 µM. Also, the “β-arrestin2 BRET EC50” value in test [3] (HEK-293T, I-1 to 19 n=3, I-20 to 27 single determination) is “Inactive”.
Take `Cn1cc2c3c(cccc31)N1CCN(CCCC(O)c3ccc(F)cc3)CC1C2` (stereo not drawn) [Compound I-27, 1-(4-fluorobenzene)-4-(4-methyl-4,6,6a,7,9,10-hexahydro-8H-pyrazino[1,2-a]pyrrolo[4,3,2-de]quinolin-8-yl)-1-butanol]: the EC50 in test [2] (setting [9]) was 1.2 µM; in test [3] (antagonistic activity, single determination, read-out: β-arrestin2 BRET EC50 (antagonistic activity)) it was 1.54 µM.
